Tests used:
[1] = Cytotoxicity against mouse J774A1 cells after 72 hrs by MTT assay; type: cell-based; details: J774.A1, 72 h
Leishmania amazonensis = test: Antileishmanial activity against intracellular amastigote stage of Leishmania amazonensis LV78 infected in mouse J774A1 cells by colorimetric assay; type: functional, organism-based; details: LV78, J774.A1
Leishmania donovani = test: Antileishmanial activity against intracellular amastigote stage of Leishmania donovani MHOM/ET/67/L82 infected in mouse J774A1 cells by colorimetric assay; type: functional, organism-based; details: MHOM/ET/67/L82, J774.A1
[2] = Distribution coefficient, log D of the compound at pH 3; type: physicochemical; details: octanol/water
[3] = Distribution coefficient, log D of the compound at pH 7.4; type: physicochemical; details: octanol/water
[4] = Aqueous solubility of the compound at pH 2; type: physicochemical; details: buffer
[5] = Aqueous solubility of the compound at pH 7.4; type: physicochemical; details: buffer
[6] = Selectivity index, ratio of EC50 for mouse J774A1 cells to EC50 for intracellular amastigote stage of Leishmania donovani MHOM/ET/67/L82; type: toxicity, cell-based, J774.A1; details: read-out: Ratio EC50
[7] = pampa, pH 7.4
Description: Passive transcellular permeability of the compound at pH 7.4 by PAMPA

[8] = pampa, pH 4
Description: Passive transcellular permeability of the compound at pH 4 by PAMPA

Row | Compound | EC50 [1] | EC50 (Leishmania amazonensis) | EC50 (Leishmania donovani) | logD [2] | logD [3] | solubility [4] | solubility [5] | selectivity ratio [6] | permeability [7] | permeability [8]
1 | COc1cc([C@@H]2c3cc4c(cc3[C@H](O)[C@H]3COC(=O)[C@H]23)OCO4)cc(OC)c1OC [PODOFILOX] | 0.25 µM |  |  |  |  |  |  |  |  | 
2 | CNc1nc(NCc2ccccc2)c2ccccc2n1 | 18 µM | 13 µM | 1.5 µM | 2.11 | 3.14 | ≥ 30 µM | ≥ 30 µM | 12 |  | 
3 | CC(C)Nc1nc(NCc2ccco2)c2cccc(Cl)c2n1 | > 33 µM | 18 µM | 4.4 µM | 2.38 | 3.96 | ≥ 30 µM | ≤ 5 µM | > 7.5 | 1330 ×10⁻⁶ cm/s | 67.6 ×10⁻⁶ cm/s
4 | c1ccc(CNc2nc(NCc3ccccc3)c3ccccc3n2)cc1 | 5.5 µM | 1.4 µM | 0.67 µM |  |  | ≤ 20 µM | ≤ 5 µM | 8.2 |  | 
5 | COc1cccc2nc(NC(C)C)nc(NCc3ccco3)c12 | 18 µM | 2.7 µM | 0.97 µM | 2.53 | 3.35 | ≥ 30 µM | ≤ 20 µM | 19 | 624 ×10⁻⁶ cm/s | 87 ×10⁻⁶ cm/s
6 | c1ccc(CNc2nc(Nc3ccccc3)nc3ccccc23)cc1 | 6.8 µM | 2.6 µM | 0.64 µM | 2.78 | 4.17 | ≤ 5 µM | ≤ 5 µM | 11 | 1480 ×10⁻⁶ cm/s | 271 ×10⁻⁶ cm/s
7 | FC(F)(F)CNc1nc(NCc2ccco2)c2ccccc2n1 | 23 µM | 5.8 µM | 3.6 µM | 2.02 | 4.2 | ≥ 30 µM | ≤ 10 µM | 6.4 | 979 ×10⁻⁶ cm/s | 67.7 ×10⁻⁶ cm/s
8 | COc1ccc2c(NCc3ccco3)nc(NC(C)C)nc2c1 | 16 µM | 10 µM | 1.2 µM | 3.11 | 3.7 | ≥ 30 µM | ≤ 20 µM | 13 | 1330 ×10⁻⁶ cm/s | 59.2 ×10⁻⁶ cm/s
9 | CC(C)Nc1nc(NCC(F)(F)F)c2ccccc2n1 | > 33 µM | 7.6 µM | 3.7 µM | 2.4 | 3.19 | ≥ 30 µM | ≥ 30 µM | > 8.9 | 780 ×10⁻⁶ cm/s | 19.7 ×10⁻⁶ cm/s
10 | COc1cccc2c(NCc3ccco3)nc(NC(C)C)nc12 | 30 µM | 7.3 µM | 3.2 µM | 2.99 | 3.4 | ≥ 30 µM | ≤ 20 µM | 9.4 | 1060 ×10⁻⁶ cm/s | 38.4 ×10⁻⁶ cm/s
11 | Cc1cccc2nc(NC(C)C)nc(NCc3ccco3)c12 | 20 µM | 3.6 µM | 0.95 µM | 2.44 | 3.55 | ≥ 30 µM | ≤ 10 µM | 21 | 812 ×10⁻⁶ cm/s | 45.9 ×10⁻⁶ cm/s
12 | Cc1ccc2nc(NC(C)C)nc(NCc3ccco3)c2c1 | > 33 µM | 15 µM | 4.7 µM | 1.55 | 3.63 | ≥ 30 µM | ≤ 20 µM | > 7 | 789 ×10⁻⁶ cm/s | 67.2 ×10⁻⁶ cm/s
13 | CC(C)Nc1nc(N(C)C)c2ccccc2n1 | > 33 µM | 19 µM | 8.9 µM | 1.64 | 3.13 | ≥ 30 µM | ≤ 10 µM | > 3.7 | 1120 ×10⁻⁶ cm/s | 72.3 ×10⁻⁶ cm/s
14 | CC(C)Nc1nc(NCc2ccco2)c2ccccc2n1 | 17 µM | 3.7 µM | 2.5 µM | 2.18 | 3.15 | ≥ 30 µM | ≥ 30 µM | 6.8 | 883 ×10⁻⁶ cm/s | 62.2 ×10⁻⁶ cm/s
15 | c1ccc(CNc2nc(Nc3ccccc3)c3ccccc3n2)cc1 | 5.2 µM | 2.2 µM | 0.26 µM | 2.67 | 4.25 | ≥ 30 µM | ≤ 5 µM | 20 | 663 ×10⁻⁶ cm/s | 412 ×10⁻⁶ cm/s
16 | CCOC(=O)CNc1nc(NC(C)C)nc2ccccc12 | > 33 µM | 20 µM | 6.9 µM | 1.73 | 2.54 | ≥ 30 µM | ≤ 20 µM | > 4.8 | 744 ×10⁻⁶ cm/s | 38.8 ×10⁻⁶ cm/s
17 | CC(C)Nc1nc(NCc2ccco2)c2c(Cl)cccc2n1 | 25 µM | 12 µM | 2.3 µM | 2.62 | 4.44 | ≥ 30 µM | ≤ 10 µM | 11 | 1240 ×10⁻⁶ cm/s | 169 ×10⁻⁶ cm/s
18 | OCCNc1nc(NCc2ccco2)c2ccccc2n1 | > 33 µM | > 50 µM | 25 µM | 1.48 | 2.19 | ≥ 30 µM | ≤ 20 µM | > 1.3 | 1130 ×10⁻⁶ cm/s | 26.4 ×10⁻⁶ cm/s
19 | COc1ccc2nc(NC(C)C)nc(NCc3ccco3)c2c1 | 14 µM | 9.6 µM | 0.74 µM | 2.95 | 3.58 | ≥ 30 µM | ≥ 30 µM | 19 | 1010 ×10⁻⁶ cm/s | 80.2 ×10⁻⁶ cm/s
20 | Cc1cccc2c(NCc3ccco3)nc(NC(C)C)nc12 | > 33 µM | 4.4 µM | 4.2 µM | 1.57 | 3.55 | ≥ 30 µM | ≤ 20 µM | > 7.9 | 666 ×10⁻⁶ cm/s | 45.9 ×10⁻⁶ cm/s
21 | CC(C)Nc1nc(NCc2ccco2)c2cc(Cl)ccc2n1 | > 33 µM | 25 µM | 2.6 µM | 2.6 | 3.99 | ≥ 30 µM | ≤ 20 µM | > 13 | 1630 ×10⁻⁶ cm/s | 170 ×10⁻⁶ cm/s
22 | CCCCNc1nc(NCCCC)c2ccccc2n1 | 5.4 µM | 2.1 µM | 1.8 µM | 2.91 | 3.89 | ≥ 30 µM | ≤ 10 µM | 3 | 880 ×10⁻⁶ cm/s | 485 ×10⁻⁶ cm/s
23 | CCCCNc1nc(NCc2ccccc2)c2ccccc2n1 | 5.1 µM | 1.8 µM | 0.65 µM |  |  |  | ≤ 10 µM | 7.8 |  | 
24 | CC(C)Nc1nc(NC2CCCCC2)c2ccccc2n1 |  | > 50 µM | > 50 µM |  |  |  | ≤ 20 µM |  |  | 
